According to ChEMBL document CHEMBL1159239, “Patellamide F, A new cytotoxic cyclic peptide from the colonial ascidian Lissoclinum patella” (1995):

Test: Cytotoxicity against human NCI60 cells
Type: functional
Conditions: read-out: LC50 (the source's name)

For `CC(C)[C@@H]1NC(=O)c2csc(n2)[C@@H](C(C)C)NC(=O)[C@H]2N=C(O[C@@H]2C)[C@H](C(C)C)NC(=O)c2csc(n2)[C@@H](Cc2ccccc2)NC(=O)[C@@H]2COC1=N2` [PATELLAMIDE F], the CC50 was 48 µM.
Compound `CC(C)C[C@H]1NC(=O)[C@H]2N=C(O[C@@H]2C)[C@H]2CSSC[C@@H](NC(=O)c3csc1n3)C1=N[C@H](C(=O)N[C@H](CC(C)C)c3nc(cs3)C(=O)N2)[C@@H](C)O1` [ULITHIACYCLAMIDE] has a CC50 of 3 µM.
In the case of `CC[C@H](C)[C@@H]1NC(=O)c2csc(n2)[C@@H](C)NC(=O)[C@H]2N=C(O[C@@H]2C)[C@H](CC(C)C)NC(=O)c2csc(n2)[C@@H](Cc2ccccc2)NC(=O)[C@H]2N=C1O[C@@H]2C` [PATELLAMIDE B], the CC50 is reported as 13 µM.
